{
  "source": "patent US20250275540A1",
  "about": "“USE OF PROTOPORPHYRINOGEN OXIDASE” (BEIJING DABEINONG BIOTECHNOLOGY CO., LTD., priority 2022, published 2025)",
  "test_system": "transgenic soybean plants",
  "experiment": "Detection of the herbicide tolerance of the transgenic soybean plants",
  "type": "in vivo",
  "details": "for The grade of pesticide damage/plant: 0 / The grade of pesticide damage/plant: 1 / The grade of pesticide damage/plant: 2 / The grade of pesticide damage/plant: 3: 7 DAT",
  "key": {"[1]": {"details": "genotype Control vector, 360 g ai/ha"}, "[2]": {"details": "genotype Control vector, 720 g ai/ha"}, "[3]": {"details": "genotype PPO-AP-01, 360 g ai/ha"}, "[4]": {"details": "genotype PPO-AP-01, 720 g ai/ha"}, "[5]": {"details": "genotype PPO-EC-01, 360 g ai/ha"}, "[6]": {"details": "genotype PPO-EC-01, 720 g ai/ha"}},
  "data": [
    {"smiles": "CCOc1cc(Oc2ccc(C(F)(F)F)cc2Cl)ccc1[N+](=O)[O-]", "note": "[oxyfluorfen, 2-chloro-1-(3-ethoxy-4-nitrophenoxy)-4-trifluoromethylbenzene]", "values": [
      {"measurement": "The grade of pesticide damage/plant: 0", "setting": "genotype CK, 360 g ai/ha", "result": 0, "unit": "plant"},
      {"measurement": "The grade of pesticide damage/plant: 1", "setting": "genotype CK, 360 g ai/ha", "result": 0, "unit": "plant"},
      {"measurement": "The grade of pesticide damage/plant: 2", "setting": "genotype CK, 360 g ai/ha", "result": 0, "unit": "plant"},
      {"measurement": "The grade of pesticide damage/plant: 3", "setting": "genotype CK, 360 g ai/ha", "result": 16, "unit": "plant"},
      {"measurement": "The grade of pesticide damage/plant: 0", "setting": "genotype CK, 720 g ai/ha", "result": 0, "unit": "plant"},
      {"measurement": "The grade of pesticide damage/plant: 1", "setting": "genotype CK, 720 g ai/ha", "result": 0, "unit": "plant"},
      {"measurement": "The grade of pesticide damage/plant: 2", "setting": "genotype CK, 720 g ai/ha", "result": 0, "unit": "plant"},
      {"measurement": "The grade of pesticide damage/plant: 3", "setting": "genotype CK, 720 g ai/ha", "result": 16, "unit": "plant"},
      {"measurement": "The grade of pesticide damage/plant: 0", "setting": "[1]", "result": 0, "unit": "plant"},
      {"measurement": "The grade of pesticide damage/plant: 1", "setting": "[1]", "result": 0, "unit": "plant"},
      {"measurement": "The grade of pesticide damage/plant: 2", "setting": "[1]", "result": 0, "unit": "plant"},
      {"measurement": "The grade of pesticide damage/plant: 3", "setting": "[1]", "result": 16, "unit": "plant"},
      {"measurement": "The grade of pesticide damage/plant: 0", "setting": "[2]", "result": 0, "unit": "plant"},
      {"measurement": "The grade of pesticide damage/plant: 1", "setting": "[2]", "result": 0, "unit": "plant"},
      {"measurement": "The grade of pesticide damage/plant: 2", "setting": "[2]", "result": 0, "unit": "plant"},
      {"measurement": "The grade of pesticide damage/plant: 3", "setting": "[2]", "result": 16, "unit": "plant"},
      {"measurement": "The grade of pesticide damage/plant: 0", "setting": "[3]", "result": 0, "unit": "plant"},
      {"measurement": "The grade of pesticide damage/plant: 1", "setting": "[3]", "result": 0, "unit": "plant"},
      {"measurement": "The grade of pesticide damage/plant: 2", "setting": "[3]", "result": 8, "unit": "plant"},
      {"measurement": "The grade of pesticide damage/plant: 3", "setting": "[3]", "result": 8, "unit": "plant"},
      {"measurement": "The grade of pesticide damage/plant: 0", "setting": "[4]", "result": 0, "unit": "plant"},
      {"measurement": "The grade of pesticide damage/plant: 1", "setting": "[4]", "result": 0, "unit": "plant"},
      {"measurement": "The grade of pesticide damage/plant: 2", "setting": "[4]", "result": 0, "unit": "plant"},
      {"measurement": "The grade of pesticide damage/plant: 3", "setting": "[4]", "result": 16, "unit": "plant"},
      {"measurement": "tolerance to the herbicide (in words)", "setting": "genotype PPO-AP-01, four-fold field concentration", "result": "no tolerance"},
      {"measurement": "share of the plants that exhibited no tolerance", "setting": "genotype PPO-AP-01, two-fold field concentration", "result": 50, "unit": "%"},
      {"measurement": "The grade of pesticide damage/plant: 0", "setting": "[5]", "result": 16, "unit": "plant"},
      {"measurement": "The grade of pesticide damage/plant: 1", "setting": "[5]", "result": 0, "unit": "plant"},
      {"measurement": "The grade of pesticide damage/plant: 2", "setting": "[5]", "result": 0, "unit": "plant"},
      {"measurement": "The grade of pesticide damage/plant: 3", "setting": "[5]", "result": 0, "unit": "plant"},
      {"measurement": "The grade of pesticide damage/plant: 0", "setting": "[6]", "result": 13, "unit": "plant"},
      {"measurement": "The grade of pesticide damage/plant: 1", "setting": "[6]", "result": 3, "unit": "plant"},
      {"measurement": "The grade of pesticide damage/plant: 2", "setting": "[6]", "result": 0, "unit": "plant"},
      {"measurement": "The grade of pesticide damage/plant: 3", "setting": "[6]", "result": 0, "unit": "plant"},
      {"measurement": "The grade of pesticide damage/plant: 0", "setting": "genotype PPOA-01, 360 g ai/ha", "result": 16, "unit": "plant"},
      {"measurement": "The grade of pesticide damage/plant: 1", "setting": "genotype PPOA-01, 360 g ai/ha", "result": 0, "unit": "plant"},
      {"measurement": "The grade of pesticide damage/plant: 2", "setting": "genotype PPOA-01, 360 g ai/ha", "result": 0, "unit": "plant"},
      {"measurement": "The grade of pesticide damage/plant: 3", "setting": "genotype PPOA-01, 360 g ai/ha", "result": 0, "unit": "plant"},
      {"measurement": "The grade of pesticide damage/plant: 0", "setting": "genotype PPOA-01, 720 g ai/ha", "result": 15, "unit": "plant"},
      {"measurement": "The grade of pesticide damage/plant: 1", "setting": "genotype PPOA-01, 720 g ai/ha", "result": 1, "unit": "plant"},
      {"measurement": "The grade of pesticide damage/plant: 2", "setting": "genotype PPOA-01, 720 g ai/ha", "result": 0, "unit": "plant"},
      {"measurement": "The grade of pesticide damage/plant: 3", "setting": "genotype PPOA-01, 720 g ai/ha", "result": 0, "unit": "plant"},
      {"measurement": "The grade of pesticide damage/plant: 0", "setting": "genotype PPOB-01, 360 g ai/ha", "result": 16, "unit": "plant"},
      {"measurement": "The grade of pesticide damage/plant: 1", "setting": "genotype PPOB-01, 360 g ai/ha", "result": 0, "unit": "plant"},
      {"measurement": "The grade of pesticide damage/plant: 2", "setting": "genotype PPOB-01, 360 g ai/ha", "result": 0, "unit": "plant"},
      {"measurement": "The grade of pesticide damage/plant: 3", "setting": "genotype PPOB-01, 360 g ai/ha", "result": 0, "unit": "plant"},
      {"measurement": "The grade of pesticide damage/plant: 0", "setting": "genotype PPOB-01, 720 g ai/ha", "result": 16, "unit": "plant"},
      {"measurement": "The grade of pesticide damage/plant: 1", "setting": "genotype PPOB-01, 720 g ai/ha", "result": 0, "unit": "plant"},
      {"measurement": "The grade of pesticide damage/plant: 2", "setting": "genotype PPOB-01, 720 g ai/ha", "result": 0, "unit": "plant"},
      {"measurement": "The grade of pesticide damage/plant: 3", "setting": "genotype PPOB-01, 720 g ai/ha", "result": 0, "unit": "plant"},
      {"measurement": "The grade of pesticide damage/plant: 0", "setting": "genotype PPOC-01, 360 g ai/ha", "result": 16, "unit": "plant"},
      {"measurement": "The grade of pesticide damage/plant: 1", "setting": "genotype PPOC-01, 360 g ai/ha", "result": 0, "unit": "plant"},
      {"measurement": "The grade of pesticide damage/plant: 2", "setting": "genotype PPOC-01, 360 g ai/ha", "result": 0, "unit": "plant"},
      {"measurement": "The grade of pesticide damage/plant: 3", "setting": "genotype PPOC-01, 360 g ai/ha", "result": 0, "unit": "plant"},
      {"measurement": "The grade of pesticide damage/plant: 0", "setting": "genotype PPOC-01, 720 g ai/ha", "result": 16, "unit": "plant"},
      {"measurement": "The grade of pesticide damage/plant: 1", "setting": "genotype PPOC-01, 720 g ai/ha", "result": 0, "unit": "plant"},
      {"measurement": "The grade of pesticide damage/plant: 2", "setting": "genotype PPOC-01, 720 g ai/ha", "result": 0, "unit": "plant"},
      {"measurement": "The grade of pesticide damage/plant: 3", "setting": "genotype PPOC-01, 720 g ai/ha", "result": 0, "unit": "plant"},
      {"measurement": "The grade of pesticide damage/plant: 0", "setting": "genotype PPOD-01, 360 g ai/ha", "result": 16, "unit": "plant"},
      {"measurement": "The grade of pesticide damage/plant: 1", "setting": "genotype PPOD-01, 360 g ai/ha", "result": 0, "unit": "plant"},
      {"measurement": "The grade of pesticide damage/plant: 2", "setting": "genotype PPOD-01, 360 g ai/ha", "result": 0, "unit": "plant"},
      {"measurement": "The grade of pesticide damage/plant: 3", "setting": "genotype PPOD-01, 360 g ai/ha", "result": 0, "unit": "plant"},
      {"measurement": "The grade of pesticide damage/plant: 0", "setting": "genotype PPOD-01, 720 g ai/ha", "result": 16, "unit": "plant"},
      {"measurement": "The grade of pesticide damage/plant: 1", "setting": "genotype PPOD-01, 720 g ai/ha", "result": 0, "unit": "plant"},
      {"measurement": "The grade of pesticide damage/plant: 2", "setting": "genotype PPOD-01, 720 g ai/ha", "result": 0, "unit": "plant"},
      {"measurement": "The grade of pesticide damage/plant: 3", "setting": "genotype PPOD-01, 720 g ai/ha", "result": 0, "unit": "plant"},
      {"measurement": "The grade of pesticide damage/plant: 0", "setting": "genotype PPOE-01, 360 g ai/ha", "result": 16, "unit": "plant"},
      {"measurement": "The grade of pesticide damage/plant: 1", "setting": "genotype PPOE-01, 360 g ai/ha", "result": 0, "unit": "plant"},
      {"measurement": "The grade of pesticide damage/plant: 2", "setting": "genotype PPOE-01, 360 g ai/ha", "result": 0, "unit": "plant"},
      {"measurement": "The grade of pesticide damage/plant: 3", "setting": "genotype PPOE-01, 360 g ai/ha", "result": 0, "unit": "plant"},
      {"measurement": "The grade of pesticide damage/plant: 0", "setting": "genotype PPOE-01, 720 g ai/ha", "result": 14, "unit": "plant"},
      {"measurement": "The grade of pesticide damage/plant: 1", "setting": "genotype PPOE-01, 720 g ai/ha", "result": 2, "unit": "plant"},
      {"measurement": "The grade of pesticide damage/plant: 2", "setting": "genotype PPOE-01, 720 g ai/ha", "result": 0, "unit": "plant"},
      {"measurement": "The grade of pesticide damage/plant: 3", "setting": "genotype PPOE-01, 720 g ai/ha", "result": 0, "unit": "plant"},
      {"measurement": "The grade of pesticide damage/plant: 0", "setting": "genotype PPOF-01, 360 g ai/ha", "result": 16, "unit": "plant"},
      {"measurement": "The grade of pesticide damage/plant: 1", "setting": "genotype PPOF-01, 360 g ai/ha", "result": 0, "unit": "plant"},
      {"measurement": "The grade of pesticide damage/plant: 2", "setting": "genotype PPOF-01, 360 g ai/ha", "result": 0, "unit": "plant"},
      {"measurement": "The grade of pesticide damage/plant: 3", "setting": "genotype PPOF-01, 360 g ai/ha", "result": 0, "unit": "plant"},
      {"measurement": "The grade of pesticide damage/plant: 0", "setting": "genotype PPOF-01, 720 g ai/ha", "result": 16, "unit": "plant"},
      {"measurement": "The grade of pesticide damage/plant: 1", "setting": "genotype PPOF-01, 720 g ai/ha", "result": 0, "unit": "plant"},
      {"measurement": "The grade of pesticide damage/plant: 2", "setting": "genotype PPOF-01, 720 g ai/ha", "result": 0, "unit": "plant"},
      {"measurement": "The grade of pesticide damage/plant: 3", "setting": "genotype PPOF-01, 720 g ai/ha", "result": 0, "unit": "plant"},
      {"measurement": "tolerance to the herbicide (in words)", "setting": "genotypes PPOA-01 to PPOF-01 and PPO-EC-01, four-fold field concentration", "result": "high-resistant tolerance"},
      {"measurement": "tolerance to the herbicide (in words)", "setting": "genotypes PPOA-01 to PPOF-01 and PPO-EC-01, two-fold field concentration", "result": "high-resistant tolerance"}
    ]}
  ]
}
